Reference: patent US20250011715A1, “METHOD FOR PRODUCING INNER EAR STRIA VASCULARIS MARGINAL CELLS, CHEMICAL AGENT ASSESSMENT METHOD, AND CELL CULTURE FOR ASSESSING CHEMICAL AGENT” (THE KITASATO INSTITUTE, priority 2021, published 2025)

Key:
OTX2 gene = OTX2 gene expression by qPCR during differentiation induction into inner ear stria vascularis marginal cells; format: cell-based, human; conditions: Day 60; insulin-free medium (N21-Ins) versus B27+N2 medium and insulin-free medium with 1.5 μM insulin added from Day 20; FIG. 17
Experimental: The differentiation from human iPS cells into inner ear progenitor cells was induced by the same method as in Test Example 1, the cells on the 12th day (Day 12) from the start of the differentiation induction were detached off with Accutase, an equal amount of PBS was added thereto, the cells were passed through a nylon mesh (pore size: 40 μm), and the number of cells was counted with a hemocytometer.
The cells were suspended to a concentration of 5×10^5 cells/10 mL and seeded in a low adhesion 6-well plate (trade name “Corning Ultra-Low Attachment Plate”, Corning Inc.), and suspension culture was started under low oxygen conditions (4% of O2, 5% of CO2). […]
In any of the above Conditions 1) to 3), the cells on the 48th day (Day 60) after the start of the suspension culture were collected, and the expression level of the OTX2 gene, which is known to be expressed on the Reissner's membrane, which is an inner ear organ, and known to be poorly expressed in the inner ear stria vascularis marginal cells, was quantified by qPCR in the same manner as in Test Example 1.

[1] = system: inner ear stria vascularis marginal cells (cell mass after suspension culture) from human iPS cells; conditions: HBSS containing 2 mM EDTA, on ice 15 minutes, 4 kDa FITC-Dextran 2 mg/mL, Day 61, versus EDTA non-treatment; FIG. 18
Experimental: The inner ear progenitor cells were obtained from human iPS cells by the same method as in Test Example 1, and suspension culture was continued until the 49th day (Day 61) after the start of the suspension culture by the same method as in Test Example 2 using the inner ear progenitor cells.
For the obtained cells, a barrier function assay was performed. Specifically, the culture after the suspension culture was put into a microtube having a volume of 1.5 mL for each cell, and centrifuged, the culture medium was discarded, and 0.5 mL of HBSS containing 2 mM EDTA was added. In addition, as a control, a sample to which HBBS containing no EDTA was added was also prepared under the same conditions. Each of the samples was placed on ice for 15 minutes, and then 4 kDa FITC-Dextran was added to each of the samples to a concentration of 2 mg/mL, and the samples were suspended and immediately observed with a confocal microscope.

Molecule | expression level of OTX2 (OTX2 gene) | barrier function between cells (transfer of FITC-Dextran to the inside of the cell mass) [1]
insulin | low in a case where the culture medium did not contain insulin as compared with a case where insulin was contained in the culture medium | 
O=C(O)CN(CCN(CC(=O)O)CC(=O)O)CC(=O)O [EDTA] |  | calcium-dependent barrier function was impaired
